Test results reported in PubChem BioAssay AID1963838 (Molecular Pharmacology Branch, DTP, NCI, 2024).

Test system: 855422-203-R-J1-PDC complex spheroid viability
Assay: Anticancer human tumor 855422-203-R-J1-PDC patient-derived bladder carcinoma cell line growth inhibition [POLQ]
Details: for IC50: curve of first compound; for viability, T/C: stronger effect = lower value
In short: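 Patient-derived tumour cells were co-cultured with HUVEC and mesenchymal stem cells as multicellular spheroids at 37 °C. They were treated with POLQ inhibitors (novobiocin, ART-558, RP6685) alone or combined with other agents. Top concentrations were at or near clinical Cmax (otherwise 10 microM; SN-38 at 1 microM), decreasing in half-log steps.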

[1] = second compound 0.0316 µM, first compound 0.00316 µM
[2] = second compound 0.0316 µM, first compound 0.01 µM
[3] = second compound 0.0316 µM, first compound 0.0316 µM
[4] = second compound 0.0316 µM, first compound 0.1 µM
[5] = second compound 0.0316 µM, first compound 0.316 µM
[6] = second compound 0.0316 µM, first compound 1 µM
[7] = second compound 0.1 µM, first compound 0.00316 µM
[8] = second compound 0.1 µM, first compound 0.01 µM
[9] = second compound 0.1 µM, first compound 0.0316 µM
[10] = second compound 0.1 µM, first compound 0.1 µM
[11] = second compound 0.1 µM, first compound 0.316 µM
[12] = second compound 0.1 µM, first compound 1 µM
[13] = second compound 0.316 µM, first compound 0.00316 µM
[14] = second compound 0.316 µM, first compound 0.01 µM
[15] = second compound 0.316 µM, first compound 0.0316 µM
[16] = second compound 0.316 µM, first compound 0.1 µM
[17] = second compound 0.316 µM, first compound 0.316 µM
[18] = second compound 0.316 µM, first compound 1 µM
[19] = second compound 1 µM, first compound 0.00316 µM
[20] = second compound 1 µM, first compound 0.01 µM
[21] = second compound 1 µM, first compound 0.0316 µM
[22] = second compound 1 µM, first compound 0.1 µM
[23] = second compound 1 µM, first compound 0.316 µM
[24] = second compound 1 µM, first compound 1 µM
[25] = second compound 3.16 µM, first compound 0.00316 µM
[26] = second compound 3.16 µM, first compound 0.01 µM
[27] = second compound 3.16 µM, first compound 0.0316 µM
[28] = second compound 3.16 µM, first compound 0.1 µM
[29] = second compound 3.16 µM, first compound 0.316 µM
[30] = second compound 3.16 µM, first compound 1 µM
[31] = second compound 10 µM, first compound 0.00316 µM
[32] = second compound 10 µM, first compound 0.01 µM
[33] = second compound 10 µM, first compound 0.0316 µM
[34] = second compound 10 µM, first compound 0.1 µM
[35] = second compound 10 µM, first compound 0.316 µM
[36] = second compound 10 µM, first compound 1 µM
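Further: spheroids exposed to compounds for seven days before readout.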

`C=CCn1c(=O)c2cnc(Nc3ccc(N4CCN(C)CC4)cc3)nc2n1-c1cccc(C(C)(C)O)n1` + Nc1ccc(C#CCN(C(=O)Cc2ncc(C(F)(F)F)cc2C(F)(F)F)c2ccc(F)cc2)nn1 showed an IC50 (second compound 0.0316 µM) greater than 1 µM, an IC50 (second compound 0.1 µM) greater than 1 µM and an IC50 (second compound 0.316 µM) greater than 1 µM. It also gave an IC50 (second compound 1 µM) greater than 1 µM, an IC50 (second compound 3.16 µM) greater than 1 µM and an IC50 (second compound 10 µM) greater than 1 µM. For the same compound, the viability, T/C [1] was 96.4%, the viability, T/C [2] was 152% and the viability, T/C [3] was 113%. It also gave a viability, T/C [4] of 85.5%, a viability, T/C [5] of 113% and a viability, T/C [6] of 204%. For the same compound, the viability, T/C [7] was 97%, the viability, T/C [8] was 127% and the viability, T/C [9] was 110%. It also gave a viability, T/C [10] of 101%, a viability, T/C [11] of 114% and a viability, T/C [12] of 160%. For the same compound, the viability, T/C [13] was 110%, the viability, T/C [14] was 134% and the viability, T/C [15] was 102%. It also gave a viability, T/C [16] of 107%, a viability, T/C [17] of 110% and a viability, T/C [18] of 219%. The viability, T/C [19] was 94.4%, the viability, T/C [20] was 144% and the viability, T/C [21] was 103%. It also gave a viability, T/C [22] of 112%, a viability, T/C [23] of 118% and a viability, T/C [24] of 193%. For the same compound, the viability, T/C [25] was 102%, the viability, T/C [26] was 112% and the viability, T/C [27] was 107%. It also gave a viability, T/C [28] of 115%, a viability, T/C [29] of 126% and a viability, T/C [30] of 198%. The viability, T/C [31] was 104%, the viability, T/C [32] was 101% and the viability, T/C [33] was 96.9%. It also gave a viability, T/C [34] of 122%, a viability, T/C [35] of 109% and a viability, T/C [36] of 161%.

Work on `CCCS(=O)(=O)Nc1ccc(F)c(C(=O)c2c[nH]c3ncc(-c4ccc(Cl)cc4)cc23)c1F` + Nc1ccc(C#CCN(C(=O)Cc2ncc(C(F)(F)F)cc2C(F)(F)F)c2ccc(F)cc2)nn1 yielded an IC50 (second compound 0.0316 µM) of 5.93 µM, an IC50 (second compound 0.1 µM) of 5.88 µM and an IC50 (second compound 0.316 µM) of 6.2 µM. It also gave an IC50 (second compound 1 µM) of 5.98 µM, an IC50 (second compound 3.16 µM) of 6.02 µM and an IC50 (second compound 10 µM) of 5.89 µM. The viability, T/C [3] was 101%, the viability, T/C [4] was 116% and the viability, T/C [5] was 92.3%. The viability, T/C [6] was 103%, the viability, T/C (second compound 0.0316 µM, first compound 3.16 µM) was 112% and the viability, T/C (second compound 0.0316 µM, first compound 10 µM) was 4.15%. The viability, T/C [9] was 99%, the viability, T/C [10] was 117% and the viability, T/C [11] was 109%. It also gave a viability, T/C [12] of 107%, a viability, T/C (second compound 0.1 µM, first compound 3.16 µM) of 103% and a viability, T/C (second compound 0.1 µM, first compound 10 µM) of 4.49%. For the same compound, the viability, T/C [15] was 116%, the viability, T/C [16] was 113% and the viability, T/C [17] was 93.1%. The viability, T/C [18] was 106%, the viability, T/C (second compound 0.316 µM, first compound 3.16 µM) was 109% and the viability, T/C (second compound 0.316 µM, first compound 10 µM) was 9.19%. The viability, T/C [21] was 106%, the viability, T/C [22] was 106% and the viability, T/C [23] was 96.2%. For the same compound, the viability, T/C [24] was 106%, the viability, T/C (second compound 1 µM, first compound 3.16 µM) was 109% and the viability, T/C (second compound 1 µM, first compound 10 µM) was 5.86%. The viability, T/C [27] was 93.5%, the viability, T/C [28] was 108% and the viability, T/C [29] was 101%. For the same compound, the viability, T/C [30] was 101%, the viability, T/C (second compound 3.16 µM, first compound 3.16 µM) was 103% and the viability, T/C (second compound 3.16 µM, first compound 10 µM) was 9.79%. For the same compound, the viability, T/C [33] was 94%, the viability, T/C [34] was 102% and the viability, T/C [35] was 101%. The viability, T/C [36] was 112%, the viability, T/C (second compound 10 µM, first compound 3.16 µM) was 99.8% and the viability, T/C (second compound 10 µM, first compound 10 µM) was 7.62%.

`CCc1c2c(nc3ccc(O)cc13)-c1cc3c(c(=O)n1C2)COC(=O)[C@]3(O)CC` + Nc1ccc(C#CCN(C(=O)Cc2ncc(C(F)(F)F)cc2C(F)(F)F)c2ccc(F)cc2)nn1 showed an IC50 (second compound 0.0316 µM) of 0.00728 µM, an IC50 (second compound 0.1 µM) of 0.00682 µM and an IC50 (second compound 0.316 µM) of 0.00742 µM. The IC50 (second compound 1 µM) was 0.00743 µM, the IC50 (second compound 3.16 µM) was 0.00579 µM and the IC50 (second compound 10 µM) was 0.00631 µM. For the same compound, the viability, T/C [1] was 96.9%, the viability, T/C [2] was 31.4% and the viability, T/C [3] was 12.5%. For the same compound, the viability, T/C [4] was 5.91%, the viability, T/C [5] was 4.85% and the viability, T/C [6] was 2.42%. It also gave a viability, T/C [7] of 100%, a viability, T/C [8] of 24.3% and a viability, T/C [9] of 10.2%. For the same compound, the viability, T/C [10] was 7.32%, the viability, T/C [11] was 4.65% and the viability, T/C [12] was 2.23%. It also gave a viability, T/C [13] of 96.2%, a viability, T/C [14] of 33.6% and a viability, T/C [15] of 11.4%. It also gave a viability, T/C [16] of 6.7%, a viability, T/C [17] of 4.41% and a viability, T/C [18] of 2.32%. The viability, T/C [19] was 94.7%, the viability, T/C [20] was 34.5% and the viability, T/C [21] was 8.52%. It also gave a viability, T/C [22] of 7.09%, a viability, T/C [23] of 4.98% and a viability, T/C [24] of 3.55%. For the same compound, the viability, T/C [25] was 71.9%, the viability, T/C [26] was 29.9% and the viability, T/C [27] was 12.9%. For the same compound, the viability, T/C [28] was 7.49%, the viability, T/C [29] was 5.5% and the viability, T/C [30] was 2.82%. It also gave a viability, T/C [31] of 86.3%, a viability, T/C [32] of 24.2% and a viability, T/C [33] of 14.3%. The viability, T/C [34] was 8.16%, the viability, T/C [35] was 5.98% and the viability, T/C [36] was 2.43%.
